Measurements from patent US12239652B2, “Composition for preventing or treating muscular diseases, or for improving muscular functions, containing ganglioside” (INDUSTRY-ACADEMIC COOPERATION FOUNDATION, YONSEI UNIVERSITY, priority 2018, dated 2025).

How the values were obtained:
p-p70S6K = assay: Western blot of mRNA translation biomarkers in TNF-α-treated L6 myotubes: p-p70S6K; type: cell-based; settings: 50 ng/mL TNF-α, 1 μM or 5 μM
Protocol: (§1) L6 myoblasts (ATCC) were seeded with DMEM (Hyclone) supplemented with 10% FBS (Hyclone) in a 6-well plate at a density of 1×10^5 cells/well, followed by culture. When the cultured cells reached a confluency of ˜80-85% per well, the media in the wells were replaced with DMEM (Hyclone) supplemented with 2% HS (Hyclone), followed by culture for additional 6 days to induce differentiation into myotubes. During culture for 6 days, the culture media were changed once every other day a total of 3 times. […] A group treated with 0.01% DMSO instead of the sample was used as a control. Cells were lysed with NP-40 buffer (ELPIS-Biotech, Daej eon, Korea) with a protease inhibitor cocktail (Sigma-Aldrich, St. Louis, MO, USA) and centrifuged at 13,000 rpm for 10 min. The cell lysate was obtained from the supernatant. The concentration of proteins in the supernatant was determined by the Bradford method (Bio-Rad Laboratories Inc.). Proteins at a certain concentration were heated for 5 min and separated by SDS-PAGE electrophoresis. The separated proteins were transferred to nitrocellulose membranes. Then, p-mTOR, mTOR, p-p70S6K, p70S6K, p-4EBP1, 4EBP1, and alpha-tubulin primary antibodies (Cell signaling technology, Beverly, MA, USA) were diluted at a ratio of 1:1000 with 2.5% bovine serum albumin (BSA; Bioworld, Dubin, OH, USA) and incubated with the proteins transferred to the nitrocellulose membranes at room temperature for 20 h. After incubation of the primary antibodies, the nitrocellulose membranes were washed 3 times with Tris-buffer saline Tween 20 (TBST) for 10 min. After washing, an anti-rabbit secondary antibody (Bethyl Laboratories, Inc., Montgomery, TA, USA) conjugated with horseradish peroxidase recognizing the primary antibodies was diluted 1:5000 with 2.5% BSA (Bioworld) and incubated with the nitrocellulose membranes at room temperature for 2 h. […]
(§2) Protein bands detected through antibody binding were developed using an ECL western blot detection reagent (Amersham, Tokyo, Japan) and visualized using a G;BOX EF imaging system (Syngene, Cambridge, UK). […]

MuRF1 = assay: RT-PCR of muscle degrading protein mRNA in TNF-α-treated L6 myotubes: MuRF1; type: cell-based; settings: 50 ng/mL TNF-α, 1 μM or 5 μM
Protocol: (§3) L6 myoblasts (ATCC) were seeded with DMEM (Hyclone) supplemented with 10% FBS (Hyclone) in a 6-well plate at a density of 1×10^5 cells/well, followed by culture. When the cultured cells reached a confluency of ˜80-85% per well, the media in the wells were replaced with DMEM (Hyclone) supplemented with 2% HS (Hyclone), followed by culture for additional 6 days to induce differentiation into myotubes. During culture for 6 days, the culture media were changed once every other day a total of 3 times. The differentiation-induced cells were harvested and the cell media were replaced with DMEM supplemented with 50 ng/mL TNF-α (PeproTech) in which ganglioside GM3 (Cayman) was dissolved at a concentration of 1 μM or 5 μM. A group treated with 0.01% DMSO instead of the sample was used as a control. Total RNA was isolated from cells using TRIzol reagent (Takara, Kyoto, Japan). The isolated total RNA was quantified using NanoDrop 1000 (Thermo Fisher Scientific Inc., Waltham, MA, USA). 16 μL of the RNA was synthesized into cDNA using Reverse Transcriptase Premix (ELPIS-Biotech) and a PCR system (Gene Amp PCR System 2700; Applied Biosystems, Foster City, CA, USA) at 42° C. for 55 min and 70° C. for 15 min. 3 μL of the synthesized cDNA, the specific primers shown in Table 1 (Bioneer, Daej eon, Korea), and PCR premix (ELPIS-Biotech) were mixed and PCR was repeated 30 times at 95° C. for 30 sec, 60° C. for 1 min, and 72° C. for 1 min. After PCR amplification, cDNA was separated by electrophoresis on a 1.5% agarose gel and the cDNA bands were visualized using a G;BOX EF imaging system (Syngene).
(§4) The procedure of Example 8 was repeated except that cells were treated with ganglioside GM1 (Cayman) at a concentration of 15 μM or 25 μM to investigate the mRNA transcription and expression levels of atrogin-1 and MuRF1 as muscle degrading proteins.
(§5) The procedure of Example 8 was repeated except that cells were treated with ganglioside GD1a (Cayman) at a concentration of 1 μM or 3 μM to investigate the mRNA transcription and expression levels of atrogin-1 and MuRF1 as muscle protein degradation-related enzymes.
(§6) The procedure of Example 8 was repeated except that cells were treated with each of gangliosides GT1b and GQ1b (Cayman) at a concentration of 1 μM to investigate the mRNA transcription and expression levels of atrogin-1 and MuRF1 as muscle protein degradation-related enzymes.

mTOR = mTOR Sandwich ELISA in L6 myotubes (activity for myogenic induction); type: cell-based; settings: 1 μM or 5 μM, 12-h culture, *P<0.05
Protocol: The mTOR protein is known to induce the activation of proteins involved in muscle protein synthesis and an increase in muscle mass in the PI3K/Akt signaling pathway in muscle cells when phosphorylated and activated. Thus, the activity of mTOR was confirmed using an mTOR Sandwich ELISA kit (Cell Signaling Technology, Beverly, MA, USA) to determine the activity of ganglioside GM3 for myogenic induction.
L6 myoblasts (ATCC; Manassas, VA, USA) were seeded with Dulbecco's modified Eagle's media (DMEM; Hyclone) supplemented with 10% fetal bovine serum (FBS; Hyclone, Logan, UT, USA) in a 6-well plate at a density of 1×10^5 cells/well, followed by culture for 24 h. The media in the wells were replaced with DMEM (Hyclone) supplemented with 2% horse serum (HS; Hyclone), followed by culture for additional 6 days to differentiate the L6 cells into myotubes. Then, cells were treated with ganglioside GM3 (Cayman, Ann Arbor, MI, USA) at a concentration of 1 μM or 5 μM. After 12-h culture, cells were lysed by treatment with a cell lysis buffer. Proteins in the cell lysate were quantified by the Bradford method (Bio-Rad Laboratories Inc., Hercules, CA, USA) and the concentration of the cell lysate was then adjusted to 1 mg/mL. The cell lysate was plated in microwells bound with anti-mTOR antibody (50 μL/well) and cultured at 37° C. for 2 h. Cells were washed a total of 4 times with a washing buffer, treated with a detection antibody, and cultured at 37° C. for 1 h, rewashed a total of 4 times with a washing buffer, added with a horseradish peroxidase (HRP)-conjugated secondary antibody, and cultured at 37° C. for 30 min. Finally, after washing a total of 4 times with a washing buffer, TMB substrate was added to each well. After culture at 37° C. for 10 min, a stop solution was added to stop the TMB reaction. 2 min later, absorbance was measured at a wavelength of 450 nm to determine the level of mTOR in the myotubes treated with ganglioside GM3.
The procedure of Example 1 was repeated except that cells were treated with ganglioside GM1 (Cayman) at a concentration of 15 μM or 25 μM to examine the activity of the ganglioside for myogenic induction.
The procedure of Example 1 was repeated except that cells were treated with ganglioside GD1a (Cayman) at a concentration of 1 μM or 3 μM to examine the activity of the ganglioside for myogenic induction.
The procedure of Example 1 was repeated except that cells were treated with each of gangliosides GT1b and GQ1b (Cayman) at a concentration of 1 μM to examine the activity of the ganglioside for myogenic induction.

Wistar rats = assay: Muscle mass (soleus weight) in TNF-α-induced muscular atrophy animal model; type: in vivo; settings: 50 mg/kg body weight once a day for 8 weeks
Protocol: Wistar rats, aged five weeks, were acclimatized for one week and supplied with 100 ng/g of TNF-α for 2 weeks to induce muscular atrophy. The animals were randomly divided into a total of 5 groups, 8 animals per group, depending on their weight. Each of gangliosides GM3, GM1, GD1a, GT1b, and GQ1b (each 50 mg/kg body weight) as experimental groups was suspended in 0.25% carboxymethylcellulose. The suspension was administered at a given time once a day for 8 weeks. A group administered the same amounts of 0.25% carboxymethyl cellulose and TNF-α ingested by each experimental group was used as a control.
After administration of the sample for 8 weeks, the right soleus was dissected and its weight was measured with a microbalance (Mettler PE160, USA).

p-4EBP1 = assay: Western blot of mRNA translation biomarkers in TNF-α-treated L6 myotubes: p-4EBP1; type: cell-based; settings: 50 ng/mL TNF-α, 1 μM or 5 μM
Protocol: as §1, §2

p-mTOR = assay: Western blot of mRNA translation biomarkers in TNF-α-treated L6 myotubes: p-mTOR; type: cell-based; settings: 50 ng/mL TNF-α, 1 μM or 5 μM
Protocol: as §1, §2

atrogin-1 = assay: RT-PCR of muscle degrading protein mRNA in TNF-α-treated L6 myotubes: atrogin-1; type: cell-based; settings: 50 ng/mL TNF-α, 1 μM or 5 μM
Protocol: as §3, §4, §5, §6

`CCCCCCCCCCCCC/C=C/[C@@H](O)[C@H](CO[C@@H]1OC(CO)[C@@H](O[C@@H]2OC(CO)[C@@H](O)C(O[C@]3(C(=O)O)CC(O)[C@@H](NC(C)=O)C([C@@H](O)[C@H](O)CO)O3)C2O)C(O)C1O)NC(=O)CCCCCCCCCCCCCCCCC` (some centres unmarked) [Ganglioside GM3, ganglioside GM3] was tested. Which “expression level of phosphorylated p-P70S6K in L6 muscle cells” value (p-p70S6K) did it give?
Its value is “increased”.

And the “mRNA expression level of MuRF1 in L6 muscle cells” value (MuRF1)?
Its value is “reduced”.

And the “activity of mTOR in L6 muscle cells” value (mTOR)?
Its value is “significantly increased”.

And the “increase of muscle (soleus) weight compared to the control group” value (Wistar rats)?
The value was 23.56%.

And the Average soleus weight (Wistar rats; right soleus, control 416.0 ± 19.57)?
The Average soleus weight was 514.0 ± 18.4 mg.

What about the “expression level of phosphorylated p-4EBP1 in L6 muscle cells” value (p-4EBP1) of the same molecule?
The value was “increased”.

And the “expression level of phosphorylated p-mTOR in L6 muscle cells” value (p-mTOR)?
Its value is “increased”.

And the “mRNA expression level of atrogin-1 in L6 muscle cells” value (atrogin-1)?
The value was “reduced”.
